These results are taken from patent US6929949B1, “Corona ion generating method and apparatus for the manipulation of molecules and biological cells” (University of South Florida, priority 2002, dated 2005).

In this experiment the test system is human A204 sarcoma cells. The experiment is described as follows: Corona charge facilitated uptake of calcein by cells in culture (fluorescence microscopy). The experiment is classed as cell-based. The conditions noted are these: for % FLOURESCENT (percentage of fluorescing cells): 10 μM calcein in PBS, visually estimated. As to the method: Referring initially to FIG. 2, the present invention has been used experimentally to facilitate the uptake of calcein by cells in culture. The experimental apparatus is shown as in FIG. 2. 35 mm diameter cell culture plates 4 were seeded with 0.5×10^6 human A204 sarcoma cells 5 approximately 24 hours prior to the experiment to allow time for the cells to attach to the growth surface on the bottom of each dish. Immediately prior to treating the cells with corona charge in air, the growth media was aspirated. Then 500 ÂμI of 10 ÂμM Calcein 6, in phosphate buffered saline 7; was introduced onto the bottom of the plate. Calcein molecules in the phosphate buffered saline are shown in the figure as a negatively charged species. The liquid was distributed over the entire growth surface. […] Corona charge 10 was deposited onto the samples in the presence of calcein for a range of times from 0 minutes to 10 minutes. The solution of calcein was allowed to remain in contact with each sample for a period of 10 minutes after corona exposure. Additionally, a positive or negative bias potential 11 can be applied to the sample. Each plate was then washed with two separate 1 ml aliquots of phosphate buffered saline to remove extracellular calcein. Finally, a 1 ml aliquot of phosphate buffered saline was pipetted into each sample plate. Samples were viewed with florescent microscopy to visually confirm the entry of the nonpermanent calcein resulting from corona charge exposure. The percentage of fluorescing cells was visually estimated based upon the total number of cells in the plates. The table shown below indicates the resulting percentages of fluorescing cells in each sample.

Structures are written as SMILES.

Turning to `O=C(O)CN(CC(=O)O)Cc1cc2c(cc1O)Oc1cc(O)c(CN(CC(=O)O)CC(=O)O)cc1C21OC(=O)c2ccccc21` [calcein, Calcein], the “entry of calcein into the cells” value (absence of corona exposure (sample 6)) was “did not result in the entry of calcein into the cells”. The “% FLOURESCENT (percentage of fluorescing cells)” value is 0% (corona exposure time 0 minutes (no corona exposure)); “Less than 1%” (corona exposure time 2 minutes, positive corona, wire at 6000 V, 2.5 cm away); 15% (corona exposure time 4 minutes, positive corona, wire at 6000 V, 2.5 cm away); 20% (corona exposure time 6 minutes, positive corona, wire at 6000 V, 2.5 cm away); 30% (corona exposure time 8 minutes, positive corona, wire at 6000 V, 2.5 cm away); 80% (corona exposure time 10 minutes, positive corona, wire at 6000 V, 2.5 cm away).
